Like-named read-outs stand apart in the source and are kept apart here.
Columns and labels:
human M2 receptor [1] = target: T1, human M2 receptor (Homo sapiens, UniProt P08172); type: cell-based; details: α >1 = positive cooperativity
T1 sequence (P08172 1-466): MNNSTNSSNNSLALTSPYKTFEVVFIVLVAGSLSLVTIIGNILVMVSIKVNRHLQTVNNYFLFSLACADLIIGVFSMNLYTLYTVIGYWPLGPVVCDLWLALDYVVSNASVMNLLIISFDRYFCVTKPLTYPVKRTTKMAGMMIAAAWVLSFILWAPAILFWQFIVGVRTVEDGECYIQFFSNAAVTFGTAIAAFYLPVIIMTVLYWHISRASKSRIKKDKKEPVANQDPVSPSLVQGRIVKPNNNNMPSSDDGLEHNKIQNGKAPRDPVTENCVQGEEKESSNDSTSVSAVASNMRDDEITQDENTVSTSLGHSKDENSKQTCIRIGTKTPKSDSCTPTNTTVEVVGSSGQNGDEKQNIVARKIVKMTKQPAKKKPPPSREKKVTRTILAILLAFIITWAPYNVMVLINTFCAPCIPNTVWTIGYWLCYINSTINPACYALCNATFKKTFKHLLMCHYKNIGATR
Protocol: B-1.2. Determination of Positive Cooperativity (α Factor)
In contrast to the EC50 determination of the test substances (see B-1.1), however, this is not done using one acetylcholine concentration; instead, every concentration of the test substance is combined with an acetylcholine 8-point dose-response curve. […] The shift in the acetylcholine dose-response curve in the presence of increasing concentrations of the test substance is analysed and quantified by means of GraphPad PRISM (Allosteric EC50 shift). […] Positive cooperativity is the hallmark of a positive allosteric modulator. […] The greater the magnitude of the α value, the greater the extent of cooperativity between orthosteric and allosteric.

human M2 receptor [2] = target: T1, human M2 receptor; details: for Emax: read-out: Efficiency, boosting of the acetylcholine effect at EC20 acetylcholine concentration; for Efficiency: boosting of the acetylcholine effect at EC20 acetylcholine concentration
[3] = shift in the acetylcholine dose-response curve (Allosteric EC50 shift, GraphPad PRISM)
[4] = Receptor activity EC50, M2-GIRK1/4 activation test, acetylcholine at EC20, allosteric potency, in some cases mean values from two or more determinations
[5] = shift of acetylcholine dose-response curve (Allosteric EC50 shift)
[6] = Receptor activity EC50, allosteric potency at EC20 acetylcholine, M2-GIRK1/4 reporter cells, in some cases mean of two or more determinations

Compound | Cooperativity (alpha factor) (human M2 receptor [1]; [3]) | EC50 (human M2 receptor [2]; [4]) | Cooperativity (alpha factor) (human M2 receptor [1]; [5]) | EC50 (human M2 receptor [2]; [6]) | Emax (human M2 receptor [2]; M2-GIRK1/4 reporter cells) | Efficiency (human M2 receptor [2]; M2-GIRK1/4 reporter cells)
O=C(NC(COC(F)(F)F)c1ccccc1)c1cn(-c2ccc(F)cc2F)c2nc(N3C[C@@H](O)CC3=O)ccc2c1=O (mixture of isomers) [Example 233, 1-(2,4-Difluorophenyl)-7-[(4S)-4-hydroxy-2-oxopyrrolidin-1-yl]-4-oxo-N-[1-phenyl-2-(trifluoromethoxy)ethyl]-1,4-dihydro-1,8-naphthyridine-3-carboxamide] | 41 | 57 nM | – | – | – | –
O=C(NC(c1c(F)cccc1F)C(F)(F)F)c1cn(-c2ccc(F)cc2F)c2nc(N3CC[C@H](F)C3)ccc2c1=O (mixture of isomers) [Example 241, 1-(2,4-Difluorophenyl)-N-[1-(2,6-difluorophenyl)-2,2,2-trifluoroethyl]-7-[(3S)-3-fluoropyrrolidin-1-yl]-4-oxo-1,4-dihydro-1,8-naphthyridine-3-carboxamide] | 18 | 21 nM | – | – | – | –
O=C(NC(c1c(F)cccc1F)C(F)(F)F)c1cn(-c2ccc(F)cc2F)c2nc(N3C[C@@H](O)CC3=O)ccc2c1=O (mixture of isomers) [Example 244, 1-(2,4-Difluorophenyl)-N-[1-(2,6-difluorophenyl)-2,2,2-trifluoroethyl]-7-[(4S)-4-hydroxy-2-oxopyrrolidin-1-yl]-4-oxo-1,4-dihydro-1,8-naphthyridine-3-carboxamide] | 58 | 22 nM | – | – | – | –
CC[C@@H](NC(=O)c1cn(-c2ccc(F)cc2F)c2nc(N3CC4CC4(O)C3)ccc2c1=O)C(F)(F)F (mixture of isomers) [Example 267, 1-(2,4-Difluorophenyl)-7-[1-hydroxy-3-azabicyclo[3.1.0]hex-3-yl]-4-oxo-N-[(2R)-1,1,1-trifluorobutan-2-yl]-1,4-dihydro-1,8-naphthyridine-3-carboxamide] | 28 | 24 nM | – | – | – | –
CC[C@@H](NC(=O)c1cn(-c2c(F)cccc2F)c2nc(N3CCC(C)(O)C3)ccc2c1=O)C(F)(F)F (mixture of isomers) [Example 276, 1-(2,6-Difluorophenyl)-7-[3-hydroxy-3-methylpyrrolidin-1-yl]-4-oxo-N-[(2R)-1,1,1-trifluorobutan-2-yl]-1,4-dihydro-1,8-naphthyridine-3-carboxamide] | 28 | 80 nM | – | – | – | –
CC[C@@H](NC(=O)c1cn(-c2c(F)cc(F)cc2F)c2nc(N3CCC(O)C3=O)ccc2c1=O)C(F)(F)F (mixture of isomers) [Example 280, 7-[3-Hydroxy-2-oxopyrrolidin-1-yl]-4-oxo-N-[(2R)-1,1,1-trifluorobutan-2-yl]-1-(2,4,6-trifluorophenyl)-1,4-dihydro-1,8-naphthyridine-3-carboxamide] | 24 | 44 nM | – | – | – | –
O=C(NC(c1ccccc1Cl)C(F)(F)F)c1cn(-c2ccccc2F)c2nc(N3CCC(O)C3=O)ccc2c1=O (racemic) [Example 287, N-[1-(2-Chlorophenyl)-2,2,2-trifluoroethyl]-1-(2-fluorophenyl)-7-[3-hydroxy-2-oxopyrrolidin-1-yl]-4-oxo-1,4-dihydro-1,8-naphthyridine-3-carboxamide] | 24 | 145 nM | – | – | – | –
O=C(NC(C1CC1)C(F)(F)F)c1cn(-c2c(F)cccc2F)c2nc(N3C[C@@H](O)CC3=O)ccc2c1=O (mixture of isomers) [Example 295, N-[1-Cyclopropyl-2,2,2-trifluoroethyl]-1-(2,6-difluorophenyl)-7-[(4S)-4-hydroxy-2-oxopyrrolidin-1-yl]-4-oxo-1,4-dihydro-1,8-naphthyridine-3-carboxamide] | 71 | 21 nM | – | – | – | –
CC[C@@H](NC(=O)c1cn(-c2ccc(F)cc2F)c2nc(N3CC(C)CC3=O)ccc2c1=O)C(F)(F)F (mixture of isomers) [Example 301, 1-(2,4-Difluorophenyl)-7-[4-methyl-2-oxopyrrolidin-1-yl]-4-oxo-N-[(2R)-1,1,1-trifluorobutan-2-yl]-1,4-dihydro-1,8-naphthyridine-3-carboxamide] | 12 | 30 nM | – | – | – | –
CC[C@@H](NC(=O)c1cn(-c2c(F)cccc2F)c2nc(N3CC4CC4(O)C3)ccc2c1=O)C(F)(F)F (mixture of isomers) [Example 304, 1-(2,6-Difluorophenyl)-7-[1-hydroxy-3-azabicyclo[3.1.0]hex-3-yl]-4-oxo-N-[(2R)-1,1,1-trifluorobutan-2-yl]-1,4-dihydro-1,8-naphthyridine-3-carboxamide] | 24 | 9 nM | – | – | – | –
CC[C@@H](NC(=O)c1cn(-c2c(F)cccc2Cl)c2nc(N3CC4CC4(O)C3)ccc2c1=O)C(F)(F)F (mixture of isomers) [Example 310, 1-(2-Chloro-6-fluorophenyl)-7-[1-hydroxy-3-azabicyclo[3.1.0]hex-3-yl]-4-oxo-N-[(2R)-1,1,1-trifluorobutan-2-yl]-1,4-dihydro-1,8-naphthyridine-3-carboxamide] | 21 | 14 nM | – | – | – | –
C[C@H](NC(=O)c1cn(-c2c(F)cccc2F)c2nc(N3CC4CC4(O)C3)ccc2c1=O)C(F)(F)F (mixture of isomers) [Example 311, 1-(2,6-Difluorophenyl)-7-[1-hydroxy-3-azabicyclo[3.1.0]hex-3-yl]-4-oxo-N-[(2S)-1,1,1-trifluoropropan-2-yl]-1,4-dihydro-1,8-naphthyridine-3-carboxamide] | 20 | 25 nM | – | – | – | –
CCC(COC(F)(F)F)NC(=O)c1cn(-c2c(F)cc(F)cc2F)c2nc(N3C[C@@H](O)CC3=O)ccc2c1=O (mixture of isomers) [Example 410, 7-[(4S)-4-Hydroxy-2-oxopyrrolidin-1-yl]-4-oxo-N-[1-(trifluoromethoxy)butan-2-yl]-1-(2,4,6-trifluorophenyl)-1,4-dihydro-1,8-naphthyridine-3-carboxamide] | – | – | 36 | 9 nM | 87% | –
CC1CCN(c2ccc3c(=O)c(C(=O)N[C@@H](C)C(F)(F)F)cn(-c4c(F)cc(F)cc4Cl)c3n2)C1=O (mixture of isomers) [Example 418, 1-(2-Chloro-4,6-difluorophenyl)-7-[3-methyl-2-oxopyrrolidin-1-yl]-4-oxo-N-[(2S)-1,1,1-trifluoropropan-2-yl]-1,4-dihydro-1,8-naphthyridine-3-carboxamide] | – | – | 7 | 17 nM | 89% | –
CC[C@H](NC(=O)c1cn(-c2c(F)cc(F)cc2Cl)c2nc(N3CCC(C)C3=O)ccc2c1=O)C(F)(F)F (mixture of isomers) [Example 422, 1-(2-Chloro-4,6-difluorophenyl)-7-[3-methyl-2-oxopyrrolidin-1-yl]-4-oxo-N-[(2S)-1,1,1-trifluorobutan-2-yl]-1,4-dihydro-1,8-naphthyridine-3-carboxamide] | – | – | 16 | 6 nM | 79% | –
CCC1CCN(c2ccc3c(=O)c(C(=O)N[C@@H](C4CC4)C(F)(F)F)cn(-c4c(F)cc(F)cc4F)c3n2)C(=O)N1 (mixture of isomers) [Example 446, N-[(1 S)-1-Cyclopropyl-2,2,2-trifluoroethyl]-7-[4-ethyl-2-oxotetrahydropyrimidin-1(2H)-yl]-4-oxo-1-(2,4,6-trifluorophenyl)-1,4-dihydro-1,8-naphthyridine-3-carboxamide] | – | – | 21 | 50 nM | 85% | –
CCC(NC(=O)c1cn(-c2c(F)cc(F)cc2F)c2nc(N3C[C@@H](O)CC3=O)ccc2c1=O)C(C)C (mixture of isomers) [Example 484, 7-[(4S)-4-Hydroxy-2-oxopyrrolidin-1-yl]-N-[2-methylpentan-3-yl]-4-oxo-1-(2,4,6-trifluorophenyl)-1,4-dihydro-1,8-naphthyridine-3-carboxamide] | – | – | 44 | 6 nM | 99.5% | –
CC(C)C(NC(=O)c1cn(-c2c(F)cc(F)cc2F)c2nc(N3CCNC3=O)ccc2c1=O)C(F)(F)F (racemic) [Example 537, 4-Oxo-7-(2-oxoimidazolidin-1-yl)-N-[1,1,1-trifluoro-3-methylbutan-2-yl]-1-(2,4,6-trifluorophenyl)-1,4-dihydro-1,8-naphthyridine-3-carboxamide] | – | – | 31 | 10 nM | – | 92.0%
CC(C)C(NC(=O)c1cn(-c2c(F)cc(F)cc2F)c2nc(N3CCNC3=O)ccc2c1=O)C(F)(F)F (racemic) [Example 538, 4-Oxo-7-(2-oxoimidazolidin-1-yl)-N-[1,1,1-trifluoro-3-methylbutan-2-yl]-1-(2,4,6-trifluorophenyl)-1,4-dihydro-1,8-naphthyridine-3-carboxamide] | – | – | 40 | 7 nM | – | 100.0%

Source: patent US20190367516A1 (Bayer Pharma Aktiengesellschaft, priority 2015, published 2019)
